The molecules below were run against human adenosine A2b receptor (Homo sapiens (Human), UniProt P29275) (assay: Cellular in vitro reporter gene test for A2b receptor activity (CHO-K1, CRE-luciferase, NECA stimulation)). Conditions: recombinant CHO-K1 cell line, CRE-luciferase reporter, antagonism of EC50 concentration of NECA; in some cases means of several determinations, rounded to two significant figures; read-out: A2b receptor IC50.
Type: cell-based
Method: B-1. Cellular In Vitro Tests for Determining A2b Receptor Activity and Adenosine Receptor Selectivity
In the case of the A2a and A2b cell lines, this is a minimal promoter having a plurality of cAMP-responsive elements (CRE). Stimulation of the Gs-coupled A2b or A2a receptors by NECA ultimately leads, via formation of cAMP, to CRE-dependent induction of luciferase expression, which is detected 3 hours after the start of the incubation with NECA using a detection solution in a suitable luminometer. For testing the antagonists, initially, in a pre-experiment, the concentration of NECA which, at the test day in question, results in half-maximum stimulation of luciferase expression (EC50 concentration) is determined. By joint incubation of this EC50 concentration of NECA with the substances to be tested, it is possible to determine their antagonistic activity.

human adenosine A2b receptor, sequence (P29275 whole entry): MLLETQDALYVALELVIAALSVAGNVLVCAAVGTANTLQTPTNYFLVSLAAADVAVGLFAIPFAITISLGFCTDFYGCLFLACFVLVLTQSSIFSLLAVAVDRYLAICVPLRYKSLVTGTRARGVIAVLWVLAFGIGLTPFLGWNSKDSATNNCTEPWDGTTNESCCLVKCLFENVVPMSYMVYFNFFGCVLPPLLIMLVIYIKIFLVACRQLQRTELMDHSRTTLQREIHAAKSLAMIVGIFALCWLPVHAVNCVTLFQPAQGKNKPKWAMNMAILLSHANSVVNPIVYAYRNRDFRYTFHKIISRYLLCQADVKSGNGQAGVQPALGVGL

First: COC(=O)N=C1NCCN1Cc1sc2c(c1C)c(=O)n(CC(F)(F)F)c(=O)n2CC1CCO1 (racemic) [Example 383, Methyl [1-{[5-methyl-1-(oxetan-2-ylmethyl)-2,4-dioxo-3-(2,2,2-trifluoroethyl)-1,2,3,4-tetrahydrothieno[2,3-d]pyrimidin-6-yl]methyl}imidazolidin-2-ylidene]carbamate]
Second: COC(=O)N=C1NCCN1Cc1sc2c(c1C)c(=O)n(CC(F)(F)F)c(=O)n2CC1CCCO1 (racemic) [Example 384, Methyl [1-{[5-methyl-2,4-dioxo-1-(tetrahydrofuran-2-ylmethyl)-3-(2,2,2-trifluoroethyl)-1,2,3,4-tetrahydrothieno[2,3-d]pyrimidin-6-yl]methyl}imidazolidin-2-ylidene]carbamate]
The IC50 of the first is 1.5-fold higher: 15 nM for the first, 9.8 nM for the second. The second is the more potent here.

First: COCCn1c(=O)c2c(C)c(CN3CCNC3=NC(=O)OC)sc2n(CC2CCO2)c1=O (racemic) [Example 387, Methyl [1-{[3-(2-methoxyethyl)-5-methyl-1-(oxetan-2-ylmethyl)-2,4-dioxo-1,2,3,4-tetrahydrothieno[2,3-d]pyrimidin-6-yl]methyl}imidazolidin-2-ylidene]carbamate]
Second: COCCn1c(=O)c2c(C)c(CN3CCNC3=NC(=O)OC)sc2n(CC2CCCO2)c1=O (racemic) [Example 390, Methyl [1-{[3-(2-methoxyethyl)-5-methyl-2,4-dioxo-1-(tetrahydrofuran-2-ylmethyl)-1,2,3,4-tetrahydrothieno[2,3-d]pyrimidin-6-yl]methyl}imidazolidin-2-ylidene]carbamate]
The IC50 of the first is 3.4-fold higher: 96 nM for the first, 28 nM for the second. The second is the more potent here.

First: Cc1c(CN2CCNC(=O)C2=O)sc2c1c(=O)n(C(C)C)c(=O)n2CC1CCO1 (racemic) [Example 397, 6-[(2,3-Dioxopiperazin-1-yl)methyl]-3-isopropyl-5-methyl-1-(oxetan-2-ylmethyl)thieno[2,3-d]pyrimidine-2,4(1H,3H)-dione]
Second: COCCn1c(=O)c2c(C)c(CN3CCNC(=O)C3=O)sc2n(CC2CCO2)c1=O (racemic) [Example 400, 6-[(2,3-Dioxopiperazin-1-yl)methyl]-3-(2-methoxyethyl)-5-methyl-1-(oxetan-2-ylmethyl)thieno[2,3-d]pyrimidine-2,4(1H,3H)-dione]
The IC50 of the first is 2.7-fold lower: 120 nM for the first, 320 nM for the second.

First: Cc1c(CN2CCNC2=O)sc2c1c(=O)n(CC(C)(C)C)c(=O)n2CC1CCCO1 (racemic) [Example 406, 3-(2,2-Dimethylpropyl)-5-methyl-6-[(2-oxoimidazolidin-1-yl)methyl]-1-(tetrahydrofuran-2-ylmethyl)thieno[2,3-d]pyrimidine-2,4(1H,3H)-dione]
Second: CCn1c(=O)c2c(C)c(Cn3nc[nH]c3=O)sc2n(CC2CCCO2)c1=O (racemic) [Example 419, 3-Ethyl-5-methyl-6-[(5-oxo-4,5-dihydro-1H-1,2,4-triazol-1-yl)methyl]-1-(tetrahydrofuran-2-ylmethyl)thieno[2,3-d]pyrimidine-2,4(1H,3H)-dione]
The IC50 of the first is 4.5-fold lower: 29 nM for the first, 130 nM for the second. The first is the more potent here.

Compared with `COCCn1c(=O)n(C(C)C(F)(F)F)c(=O)c2c(C)c(CN3CCNC3=O)sc21` (racemic) [Example 410, 1-(2-Methoxyethyl)-5-methyl-6-[(2-oxoimidazolidin-1-yl)methyl]-3-(1,1,1-trifluoropropan-2-yl)thieno[2,3-d]pyrimidine-2,4(1H,3H)-dione], `COC(C)Cn1c(=O)c2c(C)c(CN3CCNC3=O)sc2n(CCC(F)(F)F)c1=O` (racemic) [Example 412, 3-(2-Methoxypropyl)-5-methyl-6-[(2-oxoimidazolidin-1-yl)methyl]-1-(3,3,3-trifluoropropyl)thieno[2,3-d]pyrimidine-2,4(1H,3H)-dione] is 2.2-fold lower in IC50: 12 nM for the first, 5.4 nM for the second. The second is the more potent here.

With `CCn1c(=O)c2c(C)c(C(C)N3CCNC3=O)sc2n(CCC(F)(F)F)c1=O` (racemic) [Example 416, 3-Ethyl-5-methyl-6-[1-(2-oxoimidazolidin-1-yl)ethyl]-1-(3,3,3-trifluoropropyl)thieno[2,3-d]pyrimidine-2,4(1H,3H)-dione] the IC50 was 79 nM.
